Results as given in patent US12415815B2, “Pyrido[2,3-e]oxazine derivatives as agricultural chemicals” (GLOBACHEM NV, priority 2020, dated 2025).
In brackets after ≈: the same amount, converted by molar mass.

Key:
Format in all cases: cell-based
Alternaria alternata = assay: Fungicidal activity screen in amended agar, 96 well plates, Alternaria alternata; conditions: Medium N agar, 1,000 spores/mL, 20, 2, 0.2 and 0.02 ppm, room temperature (18° C.), assessed after 3 to 4 days, read-out: Alternaria (fungal growth vs DMSO controls, EC50 ranking)
Experimental: (§1) Compounds were screened in 96 well plates with 10 compounds per plate. Each compound was screened using agar amended to 20, 2, 0.2 and 0.02 ppm of the test material. Proline at 50 and 10 ppm and 0.2% DMSO were used respectively as positive and negative controls. Each test concentration and standard were tested twice on a plate.
(§2) Compounds were screened against the following three fungal pathogens—Botrytis cinerea, Alternaria alternata and Zymoseptoria tritici. The agar used in the test varied depending on the pathogen with Medium N used for B. cinerea and A. alternata and 1% potato dextrose agar for Z. tritici. For each pathogen sufficient spores were added to the appropriate agar to give 1,000 spores/mL agar of A. alternata, 5,000 spores/ml agar of B. cinerea and 10,000 spores/mL agar of Z. tritici.
(§3) A ×10 stock solution in 2% DMSO was produced for each dose i.e. 200, 20, 2 and 0.2 ppm, and 10 μl of this added to the appropriate wells on the plate. An equivalent amount of 2% DMSO and Proline stock at 500 and 100 ppm were added for the controls. To each well, 90 μl of the appropriate agar spore suspension was added to give the final well concentrations outlined in the first paragraph.
(§4) Plates were incubated at room temperature (18° C.) and assessed after: • a) 3 to 4 days A. alternata and B. cinerea • b) 7 days for Z. tritici
(§5) The amount of fungal growth in each well was compared to the DMSO controls and scored according to the following key: • A—EC50<2 ppm • B—2≤EC50<20 • C—EC50≥20 • D—No activity detected at the highest dose tested • NT—Not tested

Zymoseptoria tritici = assay: Fungicidal activity screen in amended agar, 96 well plates, Zymoseptoria tritici; conditions: Zymoseptoria tritici, 168 h; 1% potato dextrose agar, 10,000 spores/mL, 20, 2, 0.2 and 0.02 ppm, room temperature (18° C.), assessed after 7 days; read-out: Zymoseptoria (fungal growth vs DMSO controls, EC50 ranking)
Experimental: as §1, §2, §3, §4, §5

Botrytis cinerea = assay: Fungicidal activity screen in amended agar, 96 well plates, Botrytis cinerea; conditions: Medium N agar, 5,000 spores/ml, 20, 2, 0.2 and 0.02 ppm, room temperature (18° C.), assessed after 3 to 4 days, read-out: Botrytis (fungal growth vs DMSO controls, EC50 ranking)
Experimental: as §1, §2, §3, §4, §5

| Structure (SMILES) | EC50 (Alternaria alternata) [µg/mL] | EC50 (Zymoseptoria tritici) [µg/mL] | EC50 (Botrytis cinerea) [µg/mL] |
| --- | --- | --- | --- |
| COc1ccnc2c(=O)n(-c3nc4ccc(Oc5cncc(C(F)(F)F)c5)cc4s3)c(=S)oc12 [Example 8, 8-Methoxy-2-thioxo-3-(6-((5-(trifluoromethyl)pyridin-3-yl)oxy)benzo[d]thiazol-2-yl)-2,3-dihydro-4H-pyrido[2,3-e][1,3]oxazin-4-one] | 2 to 20 (≈ 3.96 to 39.6 µM) | < 2 | 2 to 20 (≈ 3.96 to 39.6 µM) |
| COc1ccnc2c(=O)n(-c3nc4ccc(Cc5ccccc5Cl)cc4s3)c(=S)oc12 [Example 29, 3-(6-(2-Chlorobenzyl)benzo[d]thiazol-2-yl)-8-methoxy-2-thioxo-2,3-dihydro-4H-pyrido[2,3-e][1,3]oxazin-4-one] | ≥ 20 | < 2 | ≥ 20 |
| COc1ccnc2c(=O)n(-c3nc4ccc(Oc5cccc(Cl)c5)cc4s3)c(=S)oc12 [Example 9, 3-(6-(3-Chlorophenoxy)benzo[d]thiazol-2-yl)-8-methoxy-2-thioxo-2,3-dihydro-4H-pyrido[2,3-e][1,3]oxazin-4-one] | 2 to 20 (≈ 4.26 to 42.6 µM) | < 2 | 2 to 20 (≈ 4.26 to 42.6 µM) |
| COc1ccnc2c(=O)n(-c3nc4ccc(Oc5ccc(F)cc5Cl)cc4s3)c(=O)oc12 [Example 1, 3-(6-(2-Chloro-4-fluorophenoxy)benzo[d]thiazol-2-yl)-8-methoxy-2H-pyrido[2,3-e][1,3]oxazine-2,4(3H)-dione] | 2 to 20 (≈ 4.24 to 42.4 µM) | < 2 | 2 to 20 (≈ 4.24 to 42.4 µM) |
| COc1ccnc2c(=O)n(-c3nc4ccc(Sc5cccnc5Cl)cc4s3)c(=S)oc12 [Example 47, 3-(6-((2-chloropyridin-3-yl)thio)benzo[d]thiazol-2-yl)-8-methoxy-2-thioxo-2,3-dihydro-4H-pyrido[2,3-e][1,3]oxazin-4-one] | ≥ 20 | < 2 | ≥ 20 |
| COc1ccnc2c(=O)n(-c3nc4ccc(Cc5ccc(F)cc5Cl)cc4s3)c(=S)oc12 [Example 28, 3-(6-(2-Chloro-4-fluorobenzyl)benzo[d]thiazol-2-yl)-8-methoxy-2-thioxo-2,3-dihydro-4H-pyrido[2,3-e][1,3]oxazin-4-one] | 2 to 20 (≈ 4.12 to 41.2 µM) | < 2 | 2 to 20 (≈ 4.12 to 41.2 µM) |
| COc1ccnc2c(=O)n(-c3nc4ccc(Oc5ccc(F)cc5Cl)cc4s3)c(=S)oc12 [Example 6, 3-(6-(2-Chloro-4-fluorophenoxy)benzo[d]thiazol-2-yl)-8-methoxy-2-thioxo-2,3-dihydro-4H-pyrido[2,3-e][1,3]oxazin-4-one] | 2 to 20 (≈ 4.1 to 41 µM) | < 2 | 2 to 20 (≈ 4.1 to 41 µM) |
| COc1ccnc2c(=O)n(-c3nc4ccc(Oc5ccccc5OC(F)F)cc4s3)c(=S)oc12 [Example 50, 3-(6-(2-(difluoromethoxy)phenoxy)benzo[d]thiazol-2-yl)-8-methoxy-2-thioxo-2,3-dihydro-4H-pyrido[2,3-e][1,3]oxazin-4-one] | ≥ 20 | < 2 | ≥ 20 |
| COc1ccnc2c(=O)n(-c3nc4ccc(Sc5ccccc5)cc4s3)c(=S)oc12 [Example 27, 8-Methoxy-3-(6-(phenylthio)benzo[d]thiazol-2-yl)-2-thioxo-2,3-dihydro-4H-pyrido[2,3-e][1,3]oxazin-4-one] | 2 to 20 (≈ 4.43 to 44.3 µM) | < 2 | ≥ 20 |
| COc1ccnc2c(=O)n(-c3nc4ccc(Oc5cncc(Cl)c5)cc4s3)c(=S)oc12 [Example 7, 3-(6-((5-Chloropyridin-3-yl)oxy)benzo[d]thiazol-2-yl)-8-methoxy-2-thioxo-2,3-dihydro-4H-pyrido[2,3-e][1,3]oxazin-4-one] | 2 to 20 (≈ 4.25 to 42.5 µM) | < 2 | 2 to 20 (≈ 4.25 to 42.5 µM) |
| COc1ccnc2c(=O)n(-c3nc4ccc(Oc5ccc(F)cc5)cc4s3)c(=O)oc12 [Example 3, 3-(6-(4-Fluorophenoxy)benzo[d]thiazol-2-yl)-8-methoxy-2H-pyrido[2,3-e][1,3]oxazine-2,4(3H)-dione] | 2 to 20 (≈ 4.57 to 45.7 µM) | < 2 | 2 to 20 (≈ 4.57 to 45.7 µM) |
| COc1ccnc2c(=O)n(-c3nc4ccc(Oc5cccnc5Cl)nc4s3)c(=S)oc12 [Example 41, 3-(5-((2-chloropyridin-3-yl)oxy)thiazolo[5,4-b]pyridin-2-yl)-8-methoxy-2-thioxo-2,3-dihydro-4H-pyrido[2,3-e][1,3]oxazin-4-one] | ≥ 20 | ≥ 20 | ≥ 20 |
| COc1ccnc2c(=O)n(-c3nc4ccc(Oc5ccccc5)cc4s3)c(=S)oc12 [Example 17, 8-Methoxy-3-(6-phenoxybenzo[d]thiazol-2-yl)-2-thioxo-2,3-dihydro-4H-pyrido[2,3-e][1,3]oxazin-4-one] | 2 to 20 (≈ 4.59 to 45.9 µM) | < 2 | 2 to 20 (≈ 4.59 to 45.9 µM) |
| COc1ccnc2c(=O)n(-c3nc4ccc(Oc5ccccc5Cl)cc4s3)c(=O)oc12 [Example 5, 3-(6-(2-Chlorophenoxy)benzo[d]thiazol-2-yl)-8-methoxy-2H-pyrido[2,3-e][1,3]oxazine-2,4(3H)-dione] | 2 to 20 (≈ 4.41 to 44.1 µM) | < 2 | 2 to 20 (≈ 4.41 to 44.1 µM) |
| COc1ccnc2c(=O)n(-c3nc4ccc(Oc5ccccc5)cc4s3)c(=O)oc12 [Example 4, 8-Methoxy-3-(6-phenoxybenzo[d]thiazol-2-yl)-2H-pyrido[2,3-e][1,3]oxazine-2,4(3H)-dione] | 2 to 20 (≈ 4.77 to 47.7 µM) | < 2 | 2 to 20 (≈ 4.77 to 47.7 µM) |
| CCOc1ccccc1Oc1ccc2nc(-n3c(=S)oc4c(OC)ccnc4c3=O)sc2c1 [Example 49, 3-(6-(2-ethoxyphenoxy)benzo[d]thiazol-2-yl)-8-methoxy-2-thioxo-2,3-dihydro-4H-pyrido[2,3-e][1,3]oxazin-4-one] | ≥ 20 | < 2 | ≥ 20 |
| COc1ccccc1Oc1ccc2nc(-n3c(=S)oc4c(OC)ccnc4c3=O)sc2n1 [Example 42, 8-methoxy-3-(5-(2-methoxyphenoxy)thiazolo[5,4-b]pyridin-2-yl)-2-thioxo-2,3-dihydro-4H-pyrido[2,3-e][1,3]oxazin-4-one] | ≥ 20 | 2 to 20 (≈ 4.29 to 42.9 µM) | ≥ 20 |
| COc1ccnc2c(=O)n(-c3nc4ccc(Oc5ccccc5Cl)nc4s3)c(=S)oc12 [Example 40, 3-(5-(2-chlorophenoxy)thiazolo[5,4-b]pyridin-2-yl)-8-methoxy-2-thioxo-2,3-dihydro-4H-pyrido[2,3-e][1,3] oxazin-4-one] | ≥ 20 | < 2 | ≥ 20 |
| COc1ccnc2c(=O)n(-c3nc4ccc(Oc5cccnc5Cl)cc4s3)c(=S)oc12 [Example 36, 3-(6-((2-chloropyridin-3-yl)oxy)benzo[d]thiazol-2-yl)-8-methoxy-2-thioxo-2,3-dihydro-4H-pyrido[2,3-e][1,3]oxazin-4-one] | ≥ 20 | < 2 | ≥ 20 |
| COc1ccnc2c(=O)n(-c3nc4ccc(OC5CCCCC5)cc4s3)c(=S)oc12 [Example 22, 3-(6-(Cyclohexyloxy)benzo[d]thiazol-2-yl)-8-methoxy-2-thioxo-2,3-dihydro-4H-pyrido[2,3-e][1,3]oxazin-4-one] | ≥ 20 | 2 to 20 (≈ 4.53 to 45.3 µM) | 2 to 20 (≈ 4.53 to 45.3 µM) |
| COc1ccnc2c(=O)n(-c3nc4ccc(Oc5cncc(C(F)(F)F)c5)cc4s3)c(=O)oc12 [Example 2, 8-Methoxy-3-(6-((5-(trifluoromethyl)pyridin-3-yl)oxy)benzo[d]thiazol-2-yl)-2H-pyrido[2,3-e][1,3]oxazine-2,4(3H)-dione] | 2 to 20 (≈ 4.09 to 40.9 µM) | < 2 | 2 to 20 (≈ 4.09 to 40.9 µM) |
| COc1ccnc2c(=O)n(-c3nc4ccc(Oc5cccc(F)c5)cc4s3)c(=S)oc12 [Example 11, 3-(6-(3-Fluorophenoxy)benzo[d]thiazol-2-yl)-8-methoxy-2-thioxo-2,3-dihydro-4H-pyrido[2,3-e][1,3]oxazin-4-one] | 2 to 20 (≈ 4.41 to 44.1 µM) | 2 to 20 (≈ 4.41 to 44.1 µM) | 2 to 20 (≈ 4.41 to 44.1 µM) |
| COc1ccnc2c(=O)n(-c3nc4ccc(Oc5ccc(F)cc5)cc4s3)c(=S)oc12 [Example 10, 3-(6-(4-Fluorophenoxy)benzo[d]thiazol-2-yl)-8-methoxy-2-thioxo-2,3-dihydro-4H-pyrido[2,3-e][1,3]oxazin-4-one] | < 2 | < 2 | 2 to 20 (≈ 4.41 to 44.1 µM) |
